Reference: EP1061945B1, “USE OF VIP ANALOGUES FOR PREVENTING AND TREATING BRAIN DAMAGE IN HUMAN BABIES” (ASSISTANCE PUBLIQUE - HOPITAUX DE PARIS, priority 1998, dated 2002)
“Also recorded” adds a separate entry of the source. Bridge positions count the residues as written; N and C are the ends. Square brackets hold non-standard residues; d marks the D form. Peptide text beside a SMILES is read from it. Nle = CCCC[C@H](N)C(=O)O

System: lésions excitotoxiques induites par l'iboténate dans le cerveau de souris en développement
Test: Ibotenate-induced excitotoxic brain lesions in newborn mice (intracerebral ibotenate at JN or JN+5)
Type: in vivo
Text: Le modèle chez la souris obtenu par injection intracérébrale d'iboténate reproduit : • des lésions du cortex cérébral, semblables à celles observées chez le foetus humain entre 16 et 25 semaines de grossesse, lorsque l'iboténate est injecté le jour de la naissance (JN), • des lésions du cortex cérébral semblables aux lésions du nouveau-né humain à terme, lorsque l'injection d'iboténate est effectuée à JN + 5 et • des lésions de la substance blanche, semblables aux lésions du prématuré humain, lorsque l'iboténate est injecté à JN + 5.
Dans l'ensemble de ces figures : * = p<0,05, ** = p<0,01 (ANOVA + test de comparaison multiple de Dunnett par rapport aux contrôles (iboténate seul)).
Les souris sont préparées comme décrit dans J Clin. Investig. précité.
Le VIP est injecté par voie intracérébrale à raison de 1 µg (dose par animal) et les VIP cycliques ont été injectés par voie intrapéritonéale à raison de 10 µg (dose par animal).

[1] = ibotenate at JN+5, peptide by intracerebral route
[2] = ibotenate at JN+5, peptide by intraperitoneal route

Row | Compound | delay of administration after the ibotenate injection within which the effects at JN+5 are observed (JN+5, peptide given after ibotenate) | taille des lésions corticales [1] | taille des lésions de substance blanche [1] | taille des lésions corticales (ibotenate at JN+5, peptide by intraperitoneal (parenteral) route) | taille des lésions de substance blanche [2] | taille des lésions corticales (ibotenate at JN, given at the same time, cyclic VIP intraperitoneal, 10 µg per animal)
1 | CCCC[C@H](NC(=O)[C@H](CCC(N)=O)NC(=O)[C@H](CCCCN)NC(=O)[C@H](CCCNC(=N)N)NC(=O)[C@H](CC(C)C)NC(=O)[C@H](CCCCN)NC(=O)[C@@H](NC(=O)[C@H](Cc1ccc(O)cc1)NC(=O)[C@H](CC(N)=O)NC(=O)[C@H](CCC(=O)O)NC(=O)[C@@H](NC(=O)[C@H](Cc1ccccc1)NC(=O)[C@@H](NC(=O)[C@H](C)NC(=O)[C@H](CC(=O)O)NC(=O)[C@H](CO)NC(=O)[C@H](Cc1c[nH]cn1)NC(C)=O)C(C)C)[C@@H](C)O)[C@@H](C)O)C(=O)N[C@@H](C)C(=O)N[C@@H](C)C(=O)N[C@@H](CCCCN)C(=O)N[C@H]1CCCCNC(=O)C[C@@H](C(=O)N[C@@H](CC(C)C)C(=O)N[C@@H](CCCCN)C(=O)N[C@@H](CCCCN)C(=O)NCC(=O)NCC(=O)N[C@H](C(N)=O)[C@@H](C)O)NC(=O)[C@H](CC(N)=O)NC(=O)[C@H](CC(C)C)NC(=O)[C@H](Cc2ccc(O)cc2)NC1=O [SEQ ID NO:2] (Ac-HSDAVFTENYTKLRKQ[Nle]AAKKYLNDLKKGGT-NH2; lactam 21-25) | 8 à 12 heures | n'est significative que lorsque l'analogue cyclique du VIP de SEQ ID NO:2 est administré par voie parentérale; also recorded: une certaine protection du cortex cérébral | diminution de la taille des lésions de substance blanche significative; also recorded: protège significativement la substance blanche | significative; also recorded: une certaine protection du cortex cérébral, surtout en intrapéritonéale | diminution de la taille des lésions de substance blanche significative; also recorded: activité significative; also recorded: protège significativement la substance blanche | 
2 | CCCC[C@H](NC(=O)[C@H](CCCNC(=N)N)NC(=O)[C@H](CCCCN)NC(=O)[C@H](CCCNC(=N)N)NC(=O)[C@H](CC(C)C)NC(=O)[C@H](CCCCN)NC(=O)[C@@H](NC(=O)[C@H](Cc1ccc(O)cc1)NC(=O)[C@H](CC(N)=O)NC(=O)[C@H](CCC(=O)O)NC(=O)[C@@H](NC(=O)[C@H](Cc1ccccc1)NC(=O)[C@@H](NC(=O)[C@H](C)NC(=O)[C@H](CC(=O)O)NC(=O)[C@H](CO)NC(=O)[C@H](Cc1c[nH]cn1)NC(C)=O)C(C)C)[C@@H](C)O)[C@@H](C)O)C(=O)N[C@@H](C)C(=O)N[C@@H](C)C(=O)N[C@@H](CCCCN)C(=O)N[C@H]1CCCCNC(=O)C[C@@H](C(=O)N[C@@H](CC(C)C)C(=O)N[C@@H](CCCCN)C(=O)N[C@@H](CCCCN)C(=O)NCC(=O)NCC(=O)N[C@H](C(N)=O)[C@@H](C)O)NC(=O)[C@H](CC(N)=O)NC(=O)[C@H](CC(C)C)NC(=O)[C@H](Cc2ccc(O)cc2)NC1=O [SEQ ID NO:3] (Ac-HSDAVFTENYTKLRKR[Nle]AAKKYLNDLKKGGT-NH2; lactam 21-25) |  |  |  |  | reproduit les effets neuroprotecteurs de l'analogue cyclique de VIP de SEQ ID NO:2 | reproduit les effets neuroprotecteurs de l'analogue cyclique de VIP de SEQ ID NO:2
